# Patent US11925690B2, “Bifunctional molecules for targeting Rpn11” (AMPHISTA THERAPEUTICS LTD, priority 2018, dated 2024)
# Assays:
# Format in all cases: cell-based
# [1] = tested on: MV4-11 cells; assay: CellTiter-Glo anti-proliferative assay; conditions: MV4-11, 72 h, 5 μM and below compound
# Procedure: The anti-proliferative effects of representative compounds and other compounds was measured using the CellTiter-Glo assay (Promega). MV4-11 cells were incubated in a sterile, white, clear-bottomed 384-well cell-culture microplate (Greiner Bio-one), at 2× concentration in RPMI media and a volume of 25 μl. The next day, test compounds were serially diluted in RPMI media to 2× concentration, then added to cells to make a final volume of 50 μl. After a 72 h incubation 25 μl of CellTiter-Glo reagent was added to each well. Following 15 minute incubation the luminescence signal was read on a Pherastar FS. The final concentration of assay components are as follows: 3×10^5 cells/ml, 0.05% DMSO, 5 μM and below compound. Data (FIG. 8) was processed and dose-response curves generated using Prism 8 (Graphpad).
# [2] = target: T1, Brd4 (S) (Homo sapiens, UniProt O60885); assay: Time-dependent BET degradation, immunoblot; set-up: Dmax: dose or concentration left out as unconfirmed; conditions: HeLa; for Abs. T1/2 / T1/2: 1 μM; for Abs. T1/2: time to deplete 50% of the protein relative to DMSO; for T1/2: time to reach 50% of the Dmax
# T1 construct: endogenous in cells; host or cells: HEK293 (CRL-1573), HeLa (CCL-2)
# Procedure: (§1) Immunoblotting. Proteins were separated by SDS-PAGE on NuPage 4-12% Bis-Tris gels, followed by transfer to Amersham Protran 0.45 NC nitrocellulose membrane (GE Healthcare) using wet transfer. Membranes were blocked using 5% w/v milk in Tris-buffered saline (TBS) with 0.1% Tween-20. Blots were probed (overnight at 4 °C) using anti-Brd2 (Abcam ab139690, 1:2,000 dilution), anti-Brd3 (Abcam ab50818, 1:500 dilution), and anti-Brd4 (Abcam ab128874, 1:1,000 dilution) primary antibodies, as appropriate. The next day, blots were washed with TBST and incubated (1 h at Room temperature) with anti-Tubulin hFAB-rhodamine (BioRad, 12004166) primary antibody, and either anti-rabbit IRDye 800CW (Licor 1:1,000 dilution) or anti-mouse IRDye 800CW (Licor 1:1,000 dilution) secondary antibody. Blots were developed using a Bio-Rad ChemiDoc MP Imaging System, and band quantification was performed using Image Studio software (LiCor). Band intensities were normalized to the tubulin loading control and reported as % of the average 0.1% DMSO vehicle intensity. Degradation data was plotted and analysed using Prism (Graphpad, version 8).
# (§2) HEK293 (0.5×10^6) cells were seeded in standard 6-well plates (2 mL medium) overnight before treatment with compounds at 1 μM concentration, with a final DMSO concentration of 0.1% v/v. After incubation for the desired time (0-24 hrs), cells were washed with DPBS (Gibco) and lysed using 85 μL RIPA buffer (Sigma-Aldrich) supplemented with complete Mini EDTA-free protease inhibitor cocktail (Roche) and benzonase. Lysates were clarified by centrifugation (20000 g, 10 min, 4° C.) and the total protein content of the supernatant was quantified using a Bradford colorimetric assay. Samples were prepared using equal amounts of total protein and LDS sample buffer (Invitrogen). Band intensities were normalized to the tubulin loading control and reported as % of the average 0.1% DMSO vehicle intensity. Degradation data was plotted and analysed using Prism (Graphpad, version 8).
# (§3) MZ1 and 11JQ17 were used at 1 μM (4 h) for positive and negative controls, respectively. […] T1/2 (h) is the time required to deplete 50% of the protein relative to DMSO.
# [3] = target: T2, Brd4 (L) (Homo sapiens, UniProt O60885); assay: Time-dependent BET degradation, immunoblot; set-up: Dmax: dose or concentration left out as unconfirmed; conditions: HeLa; for Abs. T1/2 / T1/2: 1 μM; for Abs. T1/2: time to deplete 50% of the protein relative to DMSO; for T1/2: time to reach 50% of the Dmax
# T2 construct: endogenous in cells; host or cells: HEK293 (CRL-1573), HeLa (CCL-2)
# Procedure: as §1, §2, §3
# [4] = tested on: Brd2, Brd3 and Brd4; assay: Immunoblot analysis of BET protein levels in HEK293 cells; conditions: for Brd2, Brd3 and Brd4 protein levels (FIG. 5): HEK293, 1 μM, various time points; for Brd2, Brd3 and Brd4 protein levels (FIG. 4): increasing concentrations
# Procedure: Cell culture. HeLa (CCL-2) and HEK293 (CRL-1573) cells were purchased from ATCC and cultured in DMEM medium (Gibco) supplemented with 10% FBS, 100 μg/mL penicillin/streptomycin and L-glutamine. Cells were grown at 37° C. and 5% CO2 and were kept no longer than 30 passages. All cell lines were routinely tested for mycoplasma contamination using MycoAlert kit from Lonza.
# HeLa (5×10^5) and HEK293 (1×10^6) cells were seeded in standard 6-well plates (2 mL medium) overnight before treatment with 1 μM compound with a final DMSO concentration of […]. After 4 h incubation time, cells were washed with DPBS (Gibco) and lysed using 85 μL RIPA buffer (Sigma-Aldrich) supplemented with cOmplete Mini EDTA-free protease inhibitor cocktail (Roche) and benzonase. Lysates were clarified by centrifugation (20000 g, 10 min, 4° C.) and the total protein content of the supernatant was quantified using a Bradford colorimetric assay. Samples were prepared using equal amounts of total protein and LDS sample buffer (Invitrogen).
# as §1
# as §2, with “HeLa (5×10^5) and HEK293” for “HEK293”, “(1×10^6)” for “(0.5×10^6)”, “the desired concentration (1 nM-10 μM),” for “1 μM concentration,”, “4 h treatment time,” for “incubation for the desired time (0-24 hrs),”, “cOmplete” for “complete”
# HEK293 (0.5×10^6) cells were seeded in standard 6-well plates (2 mL medium) overnight before treatment with compounds at 1 μM concentration, with a final DMSO concentration of 0.1% v/v. […] Lysates were clarified by centrifugation (20000 g, 10 min, 4° C.) and the total protein content of the supernatant was quantified using a Bradford colorimetric assay. […] Degradation data was plotted and analysed using Prism (Graphpad, version 8).
# [5] = tested on: Brd4, c-MYC, cleaved PARP (C-PARP); assay: Immunoblot of Brd4, c-MYC and cleaved PARP in MV4-11 cells
# Procedure: MV4-11 (0.7×10^6 cells/mL) were seeded in 10 cm plates (10 mL DMEM supplemented with 10% FBS and L-glutamine) overnight before treatment with compounds at the desired concentration and with a final DMSO concentration of 0.1% v/v. After 6 h incubation time, cells were washed with 2× with DPBS (Gibco) and lysed using 85 μL RIPA buffer (Sigma-Aldrich) supplemented with cOmplete Mini EDTA-free protease inhibitor cocktail (Roche) and benzonase. Lysates were clarified by centrifugation (20000 g, 10 min, 4° C.) and the total protein content of the supernatant was quantified using a Bradford colorimetric assay. Samples were prepared using equal amounts of total protein and LDS sample buffer (Invitrogen). For immunoblot analysis, the following antibodies were used: anti-Brd4 (ab128874, 1:1,000 dilution), anti-cmyc (ab32072, 1:1000 dilution), anti-CPARP (CST-9541T, 1:1,000 dilution), and anti-Tubulin hFAB-rhodamine (BioRad, 12004166, 1:10000 dilution).
# [6] = MV4-11, increasing concentrations, 6 h
structure (smiles),measurement,setting,value
Cc1sc2c(c1C)C(c1ccc(Cl)cc1)=N[C@@H](CC(=O)NCCCCNC(=O)c1cc(S)c3ncc(C(=O)NCCc4nccs4)cc3c1)c1nnc(C)n1-2 [Example 11JQ7],cytotoxicity profile / anti-proliferative effect (FIG. 8),[1],distinct from JQ1 and inactive 11JQ18
same,Dmax,[2],100%
same,Abs. T1/2,[2],3.1 h
same,T1/2,[2],3 h
same,Dmax,[3],100%
same,Abs. T1/2,[3],2.4 h
same,T1/2,[3],2.3 h
same,"Brd2, Brd3 and Brd4 protein levels (FIG. 1)","[4]; HEK293, 1 μM compound, 4 h, relative to 0.1% DMSO",approaching the potency of PROTAC MZ1
Cc1sc2c(c1C)C(c1ccc(Cl)cc1)=N[C@@H](CC(=O)NCCOCCNC(=O)c1cc(SC(=O)c3ccccc3)c3ncc(C(=O)NCCc4nccs4)cc3c1)c1nnc(C)n1-2 [Example 11JQ15],Dmax,[2],90%
same,Abs. T1/2,[2],3.3 h
same,T1/2,[2],2.8 h
same,Dmax,[3],90%
same,Abs. T1/2,[3],4.3 h
same,T1/2,[3],3.5 h
same,"Brd2, Brd3 and Brd4 protein levels (FIG. 5)",[4],"depletion of Brd2, Brd3 and Brd4 protein levels"
same,"Brd2, Brd3 and Brd4 protein levels (FIG. 4)",[4]; 4 h,"depletion of Brd2, Brd3 and Brd4 protein levels"
Cc1sc2c(c1C)C(c1ccc(Cl)cc1)=N[C@@H](CC(=O)NCCCCNC(=O)c1cc(SC(=O)c3ccccc3)c3ncc(C(=O)NCCc4nccs4)cc3c1)c1nnc(C)n1-2 [Example 11JQ16],cytotoxicity profile / anti-proliferative effect (FIG. 8),[1],distinct from JQ1 and inactive 11JQ18
same,"Brd2, Brd3 and Brd4 protein levels (FIG. 5)",[4],"depletion of Brd2, Brd3 and Brd4 protein levels"
same,"Brd2, Brd3 and Brd4 protein levels (FIG. 4)",[4]; 4 h,"depletion of Brd2, Brd3 and Brd4 protein levels"
same,increase in C-PARP compared with JQ1 and 11JQ18,"[5]; MV4-11, 6 h",significantly greater than inhibitor (JQ1) alone and the negative control (11JQ18)
same,Brd4 and c-MYC levels (FIG. 9),[5]; [6],depletion of Brd4 and c-MYC levels
same,cleaved PARP (FIG. 9),[5]; [6],corresponding increase in cleaved PARP
